Drawing on US20140107151A1, “TYROSINE KINASE INHIBITORS” (Principal Biopharma Inc., priority 2011, published 2014), this text covers IC50 for eight molecules.

SMILES strings stand for the structures.

The target in this assay is human recombinant Btk (Homo sapiens, UniProt Q06187). Put plainly: Btk Enzymatic Activity Assay (Caliper-based kinase assay). Particulars: human recombinant Btk 2 nM, ATP 40 μM, peptide substrate 1 μM, room temperature for 3 h. The class given is biochemical.
Sequence of human recombinant Btk (Q06187 whole entry): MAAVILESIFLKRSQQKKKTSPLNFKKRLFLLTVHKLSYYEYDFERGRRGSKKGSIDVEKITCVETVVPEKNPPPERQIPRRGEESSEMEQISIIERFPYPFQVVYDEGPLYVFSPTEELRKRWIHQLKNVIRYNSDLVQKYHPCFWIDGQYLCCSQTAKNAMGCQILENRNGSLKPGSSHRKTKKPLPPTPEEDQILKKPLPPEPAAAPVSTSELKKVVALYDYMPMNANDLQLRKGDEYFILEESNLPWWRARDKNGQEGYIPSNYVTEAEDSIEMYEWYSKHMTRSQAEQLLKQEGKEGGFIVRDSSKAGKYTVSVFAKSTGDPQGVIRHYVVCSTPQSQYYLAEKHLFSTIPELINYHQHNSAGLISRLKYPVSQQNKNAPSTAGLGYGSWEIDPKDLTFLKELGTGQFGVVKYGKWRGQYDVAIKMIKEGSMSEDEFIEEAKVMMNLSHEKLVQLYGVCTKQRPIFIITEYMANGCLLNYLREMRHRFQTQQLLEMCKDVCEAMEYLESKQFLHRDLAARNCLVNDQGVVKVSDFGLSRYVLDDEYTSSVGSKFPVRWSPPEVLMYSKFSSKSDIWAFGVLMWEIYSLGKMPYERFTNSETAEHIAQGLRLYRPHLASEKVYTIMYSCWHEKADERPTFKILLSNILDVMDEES
Procedure: A Caliper-based kinase assay (Caliper Life Sciences, Hopkinton, Mass.) was used to measure inhibition of Btk kinase activity of a compound of Formula (I). […] The reaction was then terminated with EDTA, final concentration 20 mM and the phosphorylated reaction product was quantified on a Caliper Desktop Profiler (Caliper LabChip 3000).
With `N#CC(=CC1CC1)C(=O)N1CCC(c2cc3[nH]nc(N)c3c(-c3ccc(Oc4ccccc4)cc3)n2)CC1` [Example 8, 2-(4-(3-amino-4-(4-phenoxyphenyl)-1H-pyrazolo[4,3-c]pyridin-6-yl)piperidine-1-carbonyl)-3-cyclopropylacrylonitrile], the IC50 stood at 2 nM.

Turning to `N#CC(=CC1CC1)C(=O)N1CCCC(c2cc3[nH]nc(N)c3c(-c3ccc(Oc4ccccc4)cc3)n2)C1` (centres unmarked) [Example 9, 2-(3-(3-amino-4-(4-phenoxyphenyl)-1H-pyrazolo[4,3-c]pyridin-6-yl)piperidine-1-carbonyl)-3-cyclopropylacrylonitrile], the half-inhibitory concentration (IC50) worked out at 1.1 nM. For `N#CC(=CC1CC1)C(=O)N1CCCC1Cc1cc2[nH]nc(N)c2c(-c2ccc(Oc3ccccc3)cc2)n1` (centres unmarked) [Example 10, 2-(2-((3-amino-4-(4-phenoxyphenyl)-1H-pyrazolo[4,3-c]pyridin-6-yl)-methyl)pyrrolidine-1-carbonyl)-3-cyclopropylacrylonitrile] the value was 2 nM.

Take `CC(C)C=C(C#N)C(=O)N1CCC(Cc2cc3[nH]nc(N)c3c(-c3ccc(Oc4ccccc4)cc3)n2)C1` (centres unmarked) [Example 10A, 2-(3-((3-amino-4-(4-phenoxyphenyl)-1H-pyrazolo[4,3-c]pyridin-6-yl)methyl)-pyrrolidine-1-carbonyl)-4-methylpent-2-enenitrile]: the 50% inhibitory concentration (IC50) stood at 1.2 nM. For `CC(C)C=C(C#N)C(=O)N1CCC[C@@H](c2cc3[nH]nc(N)c3c(-c3ccc(Oc4ccccc4)cc3)n2)C1` [Example 11, (R)-2-(3-(3-amino-4-(4-phenoxyphenyl)-1H-pyrazolo[4,3-c]pyridin-6-yl)piperidine-1-carbonyl)-4-methylpent-2-enenitrile] the value was 9.3 nM. Next, `CC(C)C=C(C#N)C(=O)N1CCC[C@H](c2cc3[nH]nc(N)c3c(-c3ccc(Oc4ccccc4)cc3)n2)C1` [Example 11A, (S)-2-(3-(3-amino-4-(4-phenoxyphenyl)-1H-pyrazolo[4,3-c]pyridin-6-yl)piperidine-1-carbonyl)-4-methylpent-2-enenitrile]: 15.5 nM; `CC(C)C=C(C#N)C(=O)N1CCC[C@H]1c1cc2[nH]nc(N)c2c(-c2ccc(Oc3ccccc3)cc2)n1` [Example 11B, (S)-2-(2-(3-amino-4-(4-phenoxyphenyl)-1H-pyrazolo[4,3-c]pyridin-6-yl)pyrrolidine-1-carbonyl)-4-methylpent-2-enenitrile]: 13 nM. For `CC(C)C=C(C#N)C(=O)N1CCC[C@@H]1c1cc2[nH]nc(N)c2c(-c2ccc(Oc3ccccc3)cc2)n1` [Example 11C, (R)-2-(2-(3-amino-4-(4-phenoxyphenyl)-1H-pyrazolo[4,3-c]pyridin-6-yl)pyrrolidine-1-carbonyl)-4-methylpent-2-enenitrile] the value was 13.6 nM.

The IC50 is the midpoint of a concentration-inhibition curve.
